# Assays:
# [1] = system: A375 melanoma cells (B-Raf V600E mutation); experiment: A375 (A375_P-ERK) cell activity / cell growth inhibition; type: cell-based; conditions: Homo sapiens, A-375
# Description: Compounds are assessed in a variety of cell based assays.
# On day 1, cells are counted, then centrifuged in a conical tube for 5 minutes at 1000 rpm.
# On day 2, compound at a maximum concentration of 5 mM is serially diluted 1:3 (e.g. 10 μL with 30 μL dimethyl sulfoxide) for a total of 8 point titration with DMSO as a control. A 1 μL aliquot of each dilution point and control is added to 249 μL growth media and 50 μL is added to a well containing cells, providing 10 μM compound at the maximum concentration point. The cells are incubated for 3 days at 37° C. in 5% CO2.
# ATPlite is added 25 μL to each well, shake for 2 minutes, and the cells are incubated at room temperature for 10 minutes, then luminescence is read on Safire reader. The measured luminescence correlates directly with cell number, such that the reading as a function of compound concentration is used to determine the IC50 value.
# B-Raf V600E = B-Raf V600E (Homo sapiens (Human), UniProt P15056, V600E); experiment: B-Raf V600E kinase biochemical activity assay (AlphaScreen, biotin-MEK1 substrate); conditions: 100 μM ATP
# B-Raf V600E, sequence (P15056 whole entry V600E): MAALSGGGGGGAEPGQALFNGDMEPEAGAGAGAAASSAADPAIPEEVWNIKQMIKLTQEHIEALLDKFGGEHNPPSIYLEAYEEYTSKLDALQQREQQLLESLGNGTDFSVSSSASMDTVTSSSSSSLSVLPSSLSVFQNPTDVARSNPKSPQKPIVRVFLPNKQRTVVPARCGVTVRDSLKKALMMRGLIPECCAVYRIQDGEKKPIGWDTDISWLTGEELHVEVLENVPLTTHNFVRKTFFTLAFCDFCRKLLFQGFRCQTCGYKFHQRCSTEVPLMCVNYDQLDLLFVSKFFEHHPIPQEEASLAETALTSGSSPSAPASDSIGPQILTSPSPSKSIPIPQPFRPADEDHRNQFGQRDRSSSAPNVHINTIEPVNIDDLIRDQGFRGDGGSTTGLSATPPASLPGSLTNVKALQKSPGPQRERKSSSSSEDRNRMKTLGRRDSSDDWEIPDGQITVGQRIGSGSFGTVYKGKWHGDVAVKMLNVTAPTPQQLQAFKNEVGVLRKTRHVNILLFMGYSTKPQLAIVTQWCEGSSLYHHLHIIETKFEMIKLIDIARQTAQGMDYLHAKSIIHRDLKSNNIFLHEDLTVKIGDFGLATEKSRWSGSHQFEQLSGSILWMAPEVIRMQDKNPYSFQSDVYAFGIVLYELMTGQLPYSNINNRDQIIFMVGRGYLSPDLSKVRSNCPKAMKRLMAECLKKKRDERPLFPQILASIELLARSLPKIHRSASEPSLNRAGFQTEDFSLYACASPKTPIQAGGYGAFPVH
# How it was run: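 IC50 was derived from AlphaScreen signal (anti-phospho-MEK1/2 antibody with streptavidin donor and Protein A acceptor beads, 3 h) across 8 compound concentrations. The kinase step ran 45 min at room temperature: 0.1 ng B-Raf V600E, 100 nM biotin-MEK1, 100 μM final ATP, pH 7.0 HEPES with MgCl2/MnCl2.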
# [2] = system: COLO205 colon adenocarcinoma cells (B-Raf V600E mutation); experiment: COLO205 cell growth inhibition (ATPlite); type: cell-based; conditions: Homo sapiens, COLO 205, 72 h, 3 days
# How it was run: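 Cells treated for 3 days at 37 °C, 5% CO2 with an 8-point 1:3 dilution series, top final concentration 10 μM, DMSO control. ATPlite luminescence used as a measure of cell number; IC50 from reading versus concentration.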
# [3] = system: IPC-298 human melanoma cell line that expresses activated NRAS; experiment: IPC-298_P-ERK cell activation assay (phosphorylated ERK, AlphaScreen); type: cell-based; conditions: 1 h, IPC-298 cells, P-ERK activation, compound for one hour
# Description: B9 is a squamous cell carcinoma cell line expressing activated HRAS that was isolated from a DMBA/TPA-induced mouse model of skin carcinogenesis (Stoler, et al. The Journal of Cell Biology, 1993, 122(5), 1103-17). IPC-298 is a human melanoma cell line that expresses activated NRAS (Aubert, et al. International Journal of Cancer, 1993, 54(5), 784-92). To determine whether compounds induce phosphorylated ERK and MEK, cells are plated in a 96-well dish and treated with an 8-point titration of compound for one hour at 37° C. The media is then removed and the cells are incubated with lysis buffer containing protease and phosphatase inhibitors. Phosphorylated ERK and MEK in the resulting lysates is detected using AlphaScreen™ technology. To detect phosphorylated ERK, cell lysates are incubated with streptavidin-coated donor beads, anti-mouse IgG acceptor beads, a biotinylated anti-ERK1/2 rabbit antibody, and a mouse antibody that recognizes ERK1/2 only when it is phosphorylated on Thr202 and Tyr204. The biotinylated ERK1/2 antibody will bind to both the streptavidin-coated donor beads and to ERK1/2 (regardless of its phosphorylation state), and the phospho-ERK1/2 antibody will bind to the acceptor beads and to ERK1/2 that is phosphorylated at Thr202/Tyr204. Excitation of the beads with laser light at 680 nm produces singlet oxygen, which is rapidly quenched unless the beads are in close proximity. When ERK is phosphorylated, both antibodies can bind the same protein, bringing the donor and acceptor beads into close proximity, producing a signal that can be measured at 580 nm. MEK phosphorylation is detected using a similar approach, only with antibodies directed against total MEK1/2 and MEK1/2 that is phosphorylated at Ser217 and Ser221.
Compound,IC50 [1] [µM],IC50 (B-Raf V600E) [µM],IC50 [2] [µM],EC50 [3] [µM]
"O=C(c1cccc(NS(=O)(=O)N2CCCC2)c1F)c1c[nH]c2ncc(-c3cccnc3)cc12 [Compound P-0043, N-[2-fluoro-3-[5-(3-pyridyl)-1H-pyrrolo[2,3-b]pyridine-3-carbonyl]phenyl]pyrrolidine-1-sulfonamide]",,< 0.1,< 1,> 10
"O=C(c1cccc(NS(=O)(=O)N2CCCC2)c1F)c1c[nH]c2ncc(-c3ccc(F)cc3)cc12 [Compound P-0062, N-[2-fluoro-3-[5-(4-fluorophenyl)-1H-pyrrolo[2,3-b]pyridine-3-carbonyl]phenyl]pyrrolidine-1-sulfonamide]",,< 0.1,< 1,> 10

# Next, values leading:
IC50 [1] [µM],IC50 (B-Raf V600E) [µM],IC50 [2] [µM],EC50 [3] [µM],Compound
> 1,< 0.1,> 1,,"CC(C)N(C)S(=O)(=O)Nc1cccc(C(=O)c2c[nH]c3ncc(-c4cnc(C5CC5)nc4)cc23)c1F [Compound P-0233, 5-(2-cyclopropylpyrimidin-5-yl)-3-[2-fluoro-3-[[isopropyl(methyl)sulfamoyl]amino]benzoyl]-1H-pyrrolo[2,3-b]pyridine]"
,< 0.1,> 1,> 10,"CCN(C)S(=O)(=O)Nc1ccc(F)c(C(=O)c2c[nH]c3ncc(Cl)cc23)c1F [Compound P-0012, 5-chloro-3-[3-[[ethyl(methyl)sulfamoyl]amino]-2,6-difluoro-benzoyl]-1H-pyrrolo[2,3-b]pyridine]"
,< 0.1,> 1,> 10,"CCN(C)S(=O)(=O)Nc1cccc(C(=O)c2c[nH]c3ncc(Cl)cc23)c1F [Compound P-0018, 5-chloro-3-[3-[[ethyl(methyl)sulfamoyl]amino]-2-fluoro-benzoyl]-1H-pyrrolo[2,3-b]pyridine]"

# Source: patent US20230277534A1 (Plexxikon Inc., priority 2011, published 2023)
